Measured values taken from patent publication US20160279154A1, “MITOCONDRIALLY-TARGETED TIMOQUINONES AND TOLUQUINONES” (MITOTECH SA, priority 2014, published 2016).
Entries after “also recorded” stand apart in the source; their conditions may differ.

Legend:
[1] = test system: electron transport chain (ETC) of mitochondria isolated from rat heart
[2] = test system: Y. lipolytica mitochondria; test: H2O2 formation by Y. lipolytica mitochondria (Amplex red); assay type: biochemical; conditions: for rate of H2O2 formation by Y. lipolytica mitochondria: certain concentrations, 0.1 mg mitochondrial protein, FIG. 13, 14
Method: The experiment was performed in the following conditions: incubation medium contained 0.6 M mannitol, 20 mM Tris-succinate,0.5 mM EGTA, 0.2 mM Tris-phosphate, pH 7.2, 2 uM Amplex red, horse radish peroxidase (5 U) and mitochondria corresponding to 0.1 mg protein. […] Measurements were made using absorption/emission 530/590 nm.

human fibroblasts = test: Protection from peroxide-induced cell death; assay type: cell-based; conditions: for protection from H2O2-induced apoptosis: FIG. 22
Method: Its activity was compared to the one of the most efficient MTA-SkQR1. The experiment was performed according to Antonenko et al., (Biochem. (Mosc.) (2008) 73:1273-1287 and the results are shown in FIG. 11.
The experiment was performed according to Antonenko et al., (Biochem. (Mosc.) (2008) 73:1273-1287. (see FIG. 12).
These experiments were performed as described in Antonenko et al (2008).

mitochondria [3] = conditions: mitochondria supplemented with certain concentrations of SkQT; FIG. 8
From the text: Several compounds according to the invention were synthesized as described above and tested for biological activity as described in Antonenko et al., (Biochem. (Mosc.) (2008) 73:1273-1287).

rat liver mitochondria = test: H2O2 formation by rat liver mitochondria (prooxidant effect, Amplex Red); assay type: biochemical; conditions: up to 15 um concentrations in the medium; FIG. 15
Method: Incubation medium contained 0.18 M mannitol, 0.07 M sucrose, 0.2 mM Tris-phosphate, 0.5 mM EGTA, pH 7.2, 20 mM Tris-succinate, 2 uM Amplex Red, 5 U horseradish Peroxidase, 6 mM aminotriazole (an inhibitor of catalase) and mitochondria corresponding to 0.25 mg protein. Excitation wavelength was of 563 nm, Emission wavelength was of 585 nm.

[4] = test system: multi-drug resistance (MDR) proteins in HeLa cells; test: Accumulation of SkQ variants in HeLa cells / expulsion by MDR pumps (flow cytometry); assay type: cell-based, human; conditions: for order of decreasing MDR-affinity: correlation suggested by the example; for accumulation in HeLa cells after MDR inhibitor: 100 nM SkQs, Pluronic L61 30 ug/ml added 10 minutes before, FIG. 17
Method: In the following experiment we have evaluated MDR expulsion of a timoquinone based SkQRT. HeLa cells were treated with 100 nM SkQRT and the activity of multidrug resistance pumps was estimated by fluorescence measurement using a Beckman Coulter FC 500 flow cytometer. […] Cells were incubated with 100 nM SkQs. After 60 minute, the medium was changed to control medium without SkQs (indicated with vertical line). […] It must be noted that MDR pumps are usually activated in tumor cells (for example HeLa), but not in normal non-malignant cells (fibroblasts or 3T3 cells).

mitochondria [5] = test: Hydrogen peroxide production by mitochondria in the presence of antimycin A; assay type: biochemical; conditions: FIG. 21
From the text: In the next experiment we measured hydrogen peroxide production by mitochondria in the presence of antimycin A (as described in Skulachev et al 2010, Biochim Biophys Acta, 1797(6-7), 878-8).

isolated mitochondria = test: Antioxidant activity in isolated mitochondria damaged by the Fenton reaction; conditions: FIG. 20
Method: Antioxidant activity was measured in isolated mitochodnria subjected to oxidative damage by the Fenton reaction (method described in Antonenko et al 2008).

energized mitochondria = test: Reduction of SkQB by energized mitochondria; assay type: biochemical; conditions: FIG. 19
[6] = test system: primary cultured human fibroblasts; test: Accumulation in primary cultured human fibroblasts (non-tumor cells); assay type: cell-based; conditions: FIG. 18

order of decreasing MDR-affinity [4]	accumulation in human fibroblasts, SkQR1 compared with SkQRT1 [6]	accumulation in HeLa cells after MDR inhibitor [4]	Compound	rate of H2O2 formation by Y. lipolytica mitochondria [2]	protection from H2O2-induced apoptosis (human fibroblasts)	prooxidant effect: stimulation of H2O2 formation by rat liver mitochondria at high concentrations (rat liver mitochondria)	also measured
SkQB>SkQT>SkQ1>SkQ3			CC1=C(C)C(=O)C(CCCCCCCCCC[P+](c2ccccc2)(c2ccccc2)c2ccccc2)=CC1=O.[Br-] [SkQ1, reference compound]	considerably lower	good protection	prooxidant effect	
SkQB>SkQT>SkQ1>SkQ3			CC1=C(C)C(=O)C(CCCCCCCCCC[P+](c2ccccc2)(c2ccccc2)c2ccccc2)=C(C)C1=O [SkQ3]				
SkQB>SkQT>SkQ1>SkQ3			O=C1C=CC(=O)C(CCCCCCCCCC[P+](c2ccccc2)(c2ccccc2)c2ccccc2)=C1 [SkQB, 10-(1,4-benzoquinonyl-2)decyltriphenylphosphonium bromide]		weak protection		hydrogen peroxide production (pro-oxidant activity) (mitochondria [5]): pronounced pro-oxidant activity; also recorded: to a greater extent than SkQ1; antioxidant activity (isolated mitochondria): very weak antioxidant activity; also recorded: lower compared to SkQ1; reduction by energized mitochondria (energized mitochondria): can be reduced by energized mitochondria in an antimycin-sensitive way

Further lines, the compound ahead of its results:

Compound	order of decreasing MDR-affinity [4]	accumulation in human fibroblasts, SkQR1 compared with SkQRT1 [6]	accumulation in HeLa cells after MDR inhibitor [4]	rate of H2O2 formation by Y. lipolytica mitochondria [2]	protection from H2O2-induced apoptosis (human fibroblasts)	prooxidant effect: stimulation of H2O2 formation by rat liver mitochondria at high concentrations (rat liver mitochondria)	also measured
10-(2-methyl-1,4-benzoquinonyl-5)decyltriphenylphosphonium bromide [SkQT]				dramatically decrease	good protection	did not stimulate H202 formation	effect of myxothiasole on reduction of the quinone form ([1]; 1 uM myxothiasole added at 10 min point, FIG. 10): prevented further reduction; reduction by mitochondria ([1]; rat heart mitochondria 0.05 mg/ml, 5 mM succinate, 2 uM rotenone, 100 nM SkQT, FIG. 9): can be reduced by mitochondria; window between lowest and highest no effect doses ([2]; compared with SkQ1, biological examples 5 and 6): much wider; hydrogen peroxide formation by mitochondria at optimal concentration ([2]; optimal concentration, biological examples 5 and 6): almost completely prevented hydrogen peroxide formation; prevention of peroxide-induced cell death (human fibroblasts; FIG. 11): very efficient; protection from H2O2-induced cell death by different dosages (human fibroblasts; FIG. 12): protection of human fibroblasts; protection of mitochondria from oxidative damage (malondialdehyde concentration) (mitochondria [3]): successfully protected mitochondria from oxidative damage
CC/N=c1/cc2oc3cc(NCC)c(C)cc3c(-c3ccccc3C(=O)OCCCCCCCCCCC3=CC(=O)C(C)=C(C)C3=O)c-2cc1C [SkQR1, reference compound]		no significant difference	increased accumulation				
CCN=c1cc2oc3cc(NCC)c(C)cc3c(-c3ccccc3C(=O)OCCCCCCCCCCC3=CC(=O)C(C)=CC3=O)c-2cc1C [SkQRT1, 10-(2-methyl-1,4-benzoquinonyl-5)-decyl ester of rhodamine 19]		no significant difference	increased accumulation				
